In publication PMC11350787, “Antimicrobial Properties and Cytotoxicity of LL-37-Derived Synthetic Peptides to Treat Orthopedic Infections” (Antibiotics, 2024):
Structures can show the parent of a compound that is named as a salt. Each block holds one compound with its values, some of them ahead of it. Peptide text beside a SMILES is read from it.

How the values were obtained:
S. aureus ATCC 49230 = test: microbe, parasite or virus in culture
From the text: (§1) A total of 18 bacterial strains relevant to orthopedic infections were used for microbiological tests, including 8 ATCC (American Type Culture Collection, ATCC, Manassas, VA, USA) and 10 clinical isolates (CI) from the Laboratory of Clinical Chemistry and Microbiology, IRCCS Ospedale Galeazzi–Sant’Ambrogio of Milan (Italy) strain collection. The ATCC strains were used for the first screening (MIC/MBC) of all the AMPs produced, while the clinical isolates were used for further MIC/MBC assays on selected AMPs. Among CI, S. epidermidis GOI1153754-03-14 has been already characterized and used in previous studies. All the strains were stocked at −80°C and working stocks were stored at −20 °C. At the occurrence, the bacteria were resuscitated in Brain Hearth Infusion (BHI, Millipore, Milan, Italy) broth at 37 °C for 18 h from the working stocks.
(§2) To determine the minimum inhibitory concentration (MIC) and the minimum bactericidal concentration (MBC), ISO20776-1 and Clinical and Laboratory Standards Institute guidelines were followed. A commercial synthetic LL-37 (Aurogene, Rome, Italy) was used as the control in the MIC and MBC assays. A stock solution of each AMP was prepared at 600 µg/mL to achieve a final concentration of 300 µg/mL. […] The MIC was determined according to the aforementioned standard guidelines. The MBC was determined by plating 2 µL of culture from each well of the MIC plates on a Tryptic Soy Agar (TSA, Millipore, Milan, Italy) plate and incubated for 24 h at 37 °C. The concentration at which there was no growth was recorded as MBC. Each experiment was carried out in triplicate. Representative MIC and MBC values for vancomycin and gentamicin were assessed to offer a benchmark comparison for the AMPs. Quality control was conducted with Staphylococcus aureus ATCC 29,213 and vancomycin according to EUCAST guidelines.

S. aureus ATCC 25923 = test: microbe, parasite or virus in culture
From the text: as §1, §2

E. coli ATCC 25922 = test: microbe, parasite or virus in culture
From the text: as §1, §2

[1] = system: S. epidermidis ATCC 35984; test: microbe, parasite or virus in culture
From the text: as §1, §2

[2] = system: S. epidermidis ATCC 14990; test: microbe, parasite or virus in culture
From the text: as §1, §2

P. aeruginosa ATCC 27853 = test: microbe, parasite or virus in culture
From the text: as §1, §2

S. aureus ATCC 43300 = test: microbe, parasite or virus in culture
From the text: as §1, §2

ATCC strains = system: ATCC strains
From the text: as §1, §2

- Minimum Inhibitory Concentration (MIC) (S. aureus ATCC 49230; ATCC 49230, 18 h): >300.00 µg/mL
- Minimum Inhibitory Concentration (MIC) (S. aureus ATCC 25923; ATCC 25923, 18 h): >300.00 µg/mL
- Minimum Inhibitory Concentration (MIC) (E. coli ATCC 25922; ATCC 25922, 18 h): >300.00 µg/mL
- Minimum Inhibitory Concentration (MIC) ([1]; ATCC 35984, 18 h): >300.00 µg/mL
- Minimum Inhibitory Concentration (MIC) ([2]; ATCC 14990, 18 h): >300.00 µg/mL
- Minimum Inhibitory Concentration (MIC) (P. aeruginosa ATCC 27853; ATCC 27853, 18 h): >300.00 µg/mL
- Minimum Inhibitory Concentration (MIC) (S. aureus ATCC 43300; ATCC 43300, 18 h): >300.00 µg/mL
- MIC values over all ATCC strains tested (ATCC strains; 18 h): greater than 300 µg/mL
Structure (SMILES): CC[C@H](C)[C@H](NC(=O)[C@H](CCCNC(=N)N)NC(=O)[C@H](CCC(N)=O)NC(=O)[C@@H](NC(=O)[C@@H](NC(=O)[C@H](CCCNC(=N)N)NC(=O)[C@@H](N)CCCCN)[C@@H](C)CC)C(C)C)C(=O)N[C@@H](CCCCN)C(=O)N[C@@H](CC(=O)O)C(=O)N[C@@H](Cc1ccccc1)C(=O)N[C@@H](CC(C)C)C(=O)N[C@@H](CCCNC(=N)N)C(N)=O [KR-12] (H-KRIVQRIKDFLR-NH2)
- Minimum Bactericidal Concentration (MBC) (S. aureus ATCC 49230; ATCC 49230, 24 h): >300.00 µg/mL
- Minimum Bactericidal Concentration (MBC) (S. aureus ATCC 25923; ATCC 25923, 24 h): >300.00 µg/mL
- Minimum Bactericidal Concentration (MBC) (E. coli ATCC 25922; ATCC 25922, 24 h): >300.00 µg/mL
- Minimum Bactericidal Concentration (MBC) ([1]; ATCC 35984, 24 h): >300.00 µg/mL
- Minimum Bactericidal Concentration (MBC) ([2]; ATCC 14990, 24 h): >300.00 µg/mL
- Minimum Bactericidal Concentration (MBC) (P. aeruginosa ATCC 27853; ATCC 27853, 24 h): >300.00 µg/mL
- Minimum Bactericidal Concentration (MBC) (S. aureus ATCC 43300; ATCC 43300, 24 h): >300.00 µg/mL

Structure (SMILES): O=C(O)C(F)(F)F [Na-TFA, Trifluoroacetic acid, reference compound]
- MBC (S. aureus ATCC 49230; Staphylococcus aureus, ATCC49230, 24 h, read-out: Minimum Bactericidal Concentration (MBC)): > 200 µg/mL
- MIC (S. aureus ATCC 49230; Staphylococcus aureus, ATCC49230, read-out: Minimum Inhibitory Concentration (MIC)): > 200 µg/mL
- MBC (S. aureus ATCC 25923; Staphylococcus aureus, ATCC25923, 24 h, read-out: Minimum Bactericidal Concentration (MBC)): > 200 µg/mL
- MIC (S. aureus ATCC 25923; Staphylococcus aureus, ATCC25923, read-out: Minimum Inhibitory Concentration (MIC)): > 200 µg/mL
- MBC (E. coli ATCC 25922; Escherichia coli, ATCC25922, 24 h, read-out: Minimum Bactericidal Concentration (MBC)): > 200 µg/mL
- MIC (E. coli ATCC 25922; Escherichia coli, ATCC25922, read-out: Minimum Inhibitory Concentration (MIC)): > 200 µg/mL
- MBC ([1]; Staphylococcus epidermidis, ATCC35984, 24 h, read-out: Minimum Bactericidal Concentration (MBC)): > 200 µg/mL
- MIC ([1]; Staphylococcus epidermidis, ATCC35984, read-out: Minimum Inhibitory Concentration (MIC)): > 200 µg/mL
- MBC ([2]; Staphylococcus epidermidis, ATCC14990, 24 h, read-out: Minimum Bactericidal Concentration (MBC)): > 200 µg/mL
- MIC ([2]; Staphylococcus epidermidis, ATCC14990, read-out: Minimum Inhibitory Concentration (MIC)): > 200 µg/mL
- MBC (P. aeruginosa ATCC 27853; Pseudomonas aeruginosa, ATCC27853, 24 h, read-out: Minimum Bactericidal Concentration (MBC)): > 200 µg/mL
- MIC (P. aeruginosa ATCC 27853; Pseudomonas aeruginosa, ATCC27853, read-out: Minimum Inhibitory Concentration (MIC)): > 200 µg/mL
- MBC (S. aureus ATCC 43300; Staphylococcus aureus, ATCC43300, 24 h, read-out: Minimum Bactericidal Concentration (MBC)): > 200 µg/mL
- MIC (S. aureus ATCC 43300; Staphylococcus aureus, ATCC43300, read-out: Minimum Inhibitory Concentration (MIC)): > 200 µg/mL
- Bacteriostatic or bactericidal effect (ATCC strains; all ATCC strains, at the concentrations tested (up to 200 µg/mL)): no bacteriostatic or bactericidal effect
